This is an account of results in patent publication US20070128217A1 (priority 2003, published 2007).

Assay [1] has as its system control sera (pooled serum of ten healthy LUMC hospital workers; commercial negative donor pooled serum from the Dutch bloodbank). The assay is classed as binding, human. Further details: Binding of Control serum LUMC to linear peptides / Binding of Control serum Blood-bank to linear peptides / Binding of Control serum LUMC to looped peptides / Binding of Control Serum Blood-Bank to Looped peptides / Binding of Control serum LUMC to linear peptides of the protein M of SARS-CoV Urbani / Binding of Control serum Blood-bank to linear peptides of the protein M of SARS-CoV Urbani / Binding of Control serum LUMC to looped peptides of the protein M of SARS-CoV Urbani / Binding of Control Serum Blood-Bank to Looped peptides of the protein M of SARS-CoV Urbani: unit not given here.

Assay [2] has as its system rabbit serum obtained by immunizing a rabbit with the SARS-CoV strain Frankfurt 1. The assay is classed as binding. Further details: Binding of a rabbit serum to linear peptides / Binding of a rabbit serum to looped peptides / Rabbit serum linear peptides / Rabbit serum looped peptides / Binding of a rabbit serum to linear peptides of protein N of SARS-CoV Urbani (Rabbit serum linear peptides) / Binding of a rabbit serum to looped/cyclic peptides of protein N of SARS-CoV Urbani (Rabbit serum looped peptides): unit not given here.

The test system of assay [3] is recombinant human anti-SARS-CoV antibody 03-018. It is filed as binding. Further details: Binding of antibody 03-018 to linear peptides of the N protein of SARS-CoV Urbani / Binding of antibody 03-018 to looped/cyclic peptides of the N protein of SARS-CoV Urbani: unit not given here.

As to IKLDDKDPQFKDNVI, in assay [1], the “Control Serum Blood-Bank Looped peptides” value was found to be 0.6, the “Control serum Blood-bank linear peptides” value amounted to 0.9, the “Control serum LUMC linear peptides” value is 0.9 and the “Control serum LUMC looped peptides” value came to 0.6. In assay [2], the “Binding of a rabbit serum to linear peptides of protein N of SARS-CoV Urbani (Rabbit serum linear peptides)” value (from here on “Binding … (Rabbit serum linear peptides)”) is 0.1 and the “Binding of a rabbit serum to looped/cyclic peptides of protein N of SARS-CoV Urbani (Rabbit serum looped peptides)” value is recorded as 0.3. In assay [3], the “Binding of antibody 03-018 to linear peptides of the N protein of SARS-CoV Urbani” value stood at 0.1 and the “Binding of antibody 03-018 to looped/cyclic peptides of the N protein of SARS-CoV Urbani” value turned out to be 0.2.
For LPQGTTLPKGFYAEG, in assay [1], the “Binding of Control Serum Blood-Bank to Looped peptides” value is reported as 0.9, the “Binding of Control serum Blood-bank to linear peptides” value stood at 0.8, the “Binding of Control serum LUMC to linear peptides” value was 0.8 and the “Binding of Control serum LUMC to looped peptides” value worked out at 0.8. In assay [2], the “Binding … (Rabbit serum linear peptides)” value came out at 0.1 and the “Binding of a rabbit serum to looped/cyclic peptides of protein N of SARS-CoV Urbani (Rabbit serum looped peptides)” value was 0.7. In assay [3], the “Binding of antibody 03-018 to linear peptides of the N protein of SARS-CoV Urbani” value was 0.1 and the “Binding of antibody 03-018 to looped/cyclic peptides of the N protein of SARS-CoV Urbani” value is 0.3.
On to NNAATVLQLPQGTTL, for which, in assay [1], the “Binding of Control Serum Blood-Bank to Looped peptides” value worked out at 0.8, the “Binding of Control serum Blood-bank to linear peptides” value is reported as 0.9, the “Binding of Control serum LUMC to linear peptides” value came out at 0.9 and the “Binding of Control serum LUMC to looped peptides” value came to 0.8. Besides, in assay [2], the “Binding … (Rabbit serum linear peptides)” value was determined as 0.2 and the “Binding of a rabbit serum to looped/cyclic peptides of protein N of SARS-CoV Urbani (Rabbit serum looped peptides)” value is on record as 0.4. In assay [3], the “Binding of antibody 03-018 to linear peptides of the N protein of SARS-CoV Urbani” value came to 0.1 and the “Binding of antibody 03-018 to looped/cyclic peptides of the N protein of SARS-CoV Urbani” value was 0.3.
Consider NSPARMASGGGETAL, for which, in assay [1], the “Binding of Control Serum Blood-Bank to Looped peptides” value amounted to 0.3, the “Binding of Control serum Blood-bank to linear peptides” value amounted to 0.9, the “Binding of Control serum LUMC to linear peptides” value turned out to be 0.7 and the “Binding of Control serum LUMC to looped peptides” value is 0.4. Further, in assay [2], the “Binding … (Rabbit serum linear peptides)” value is on record as 0.3 and the “Binding of a rabbit serum to looped/cyclic peptides of protein N of SARS-CoV Urbani (Rabbit serum looped peptides)” value came out at 0.3. Further, in assay [3], the “Binding of antibody 03-018 to linear peptides of the N protein of SARS-CoV Urbani” value is listed as 0.1 and the “Binding of antibody 03-018 to looped/cyclic peptides of the N protein of SARS-CoV Urbani” value came out at 0.2.
For the sequence PQFKDNVILLNKHID, in assay [1], the “Control Serum Blood-Bank Looped peptides” value is listed as 0.7, the “Control serum Blood-bank linear peptides” value came to 0.7, the “Control serum LUMC linear peptides” value is 0.7 and the “Control serum LUMC looped peptides” value turned out to be 0.8. In addition, in assay [2], the “Binding … (Rabbit serum linear peptides)” value is recorded as 0.2 and the “Binding of a rabbit serum to looped/cyclic peptides of protein N of SARS-CoV Urbani (Rabbit serum looped peptides)” value was found to be 0.4. Also, in assay [3], the “Binding of antibody 03-018 to linear peptides of the N protein of SARS-CoV Urbani” value was determined as 0.1 and the “Binding of antibody 03-018 to looped/cyclic peptides of the N protein of SARS-CoV Urbani” value is recorded as 0.2.
Consider PRQKRTATKQYNVTQ, for which, in assay [1], the “Binding of Control Serum Blood-Bank to Looped peptides” value came to 1.0, the “Binding of Control serum Blood-bank to linear peptides” value turned out to be 1.0, the “Binding of Control serum LUMC to linear peptides” value worked out at 0.9 and the “Binding of Control serum LUMC to looped peptides” value is recorded as 0.9. Also, the “Recognition of the peptide by the rabbit serum” value (shortened to “Recognition of the peptide”) in assay [2] was “recognized”. In assay [3], the “Binding of antibody 03-018 to linear peptides of the N protein of SARS-CoV Urbani” value is recorded as 0.1 and the “Binding of antibody 03-018 to looped/cyclic peptides of the N protein of SARS-CoV Urbani” value is 0.2.
With QFKDNVILLNKHIDA, in assay [1], the “Control Serum Blood-Bank Looped peptides” value came to 0.9, the “Control serum Blood-bank linear peptides” value is given as 0.6, the “Control serum LUMC linear peptides” value amounted to 0.6 and the “Control serum LUMC looped peptides” value was 0.8. Also, in assay [2], the “Binding … (Rabbit serum linear peptides)” value was determined as 0.1 and the “Binding of a rabbit serum to looped/cyclic peptides of protein N of SARS-CoV Urbani (Rabbit serum looped peptides)” value is 0.7. In addition, in assay [3], the “Binding of antibody 03-018 to linear peptides of the N protein of SARS-CoV Urbani” value worked out at 0.1 and the “Binding of antibody 03-018 to looped/cyclic peptides of the N protein of SARS-CoV Urbani” value is reported as 0.3.
Take QGTTLPKGFYAEGSR: in assay [1], the “Binding of Control Serum Blood-Bank to Looped peptides” value was 0.7, the “Binding of Control serum Blood-bank to linear peptides” value came out at 0.8, the “Binding of Control serum LUMC to linear peptides” value was determined as 0.7 and the “Binding of Control serum LUMC to looped peptides” value came out at 0.7. In assay [2], the “Binding … (Rabbit serum linear peptides)” value stood at 0.1 and the “Binding of a rabbit serum to looped/cyclic peptides of protein N of SARS-CoV Urbani (Rabbit serum looped peptides)” value came out at 0.6. Further, in assay [3], the “Binding of antibody 03-018 to linear peptides of the N protein of SARS-CoV Urbani” value is 0.1 and the “Binding of antibody 03-018 to looped/cyclic peptides of the N protein of SARS-CoV Urbani” value is 0.2.
With QKRTATKQYNVTQAF, in assay [1], the “Binding of Control Serum Blood-Bank to Looped peptides” value was determined as 0.8, the “Binding of Control serum Blood-bank to linear peptides” value was found to be 0.8, the “Binding of Control serum LUMC to linear peptides” value is recorded as 0.7 and the “Binding of Control serum LUMC to looped peptides” value came to 0.8. Besides, the “Recognition of the peptide” value in assay [2] is listed as “recognized”. Further, in assay [3], the “Binding of antibody 03-018 to linear peptides of the N protein of SARS-CoV Urbani” value amounted to 0.1 and the “Binding of antibody 03-018 to looped/cyclic peptides of the N protein of SARS-CoV Urbani” value stood at 0.2.
On to QLPQGTTLPKGFYAE, for which, in assay [1], the “Binding of Control Serum Blood-Bank to Looped peptides” value was 0.6, the “Binding of Control serum Blood-bank to linear peptides” value is listed as 0.9, the “Binding of Control serum LUMC to linear peptides” value is on record as 0.7 and the “Binding of Control serum LUMC to looped peptides” value was 0.6. In addition, in assay [2], the “Binding … (Rabbit serum linear peptides)” value was 0.2 and the “Binding of a rabbit serum to looped/cyclic peptides of protein N of SARS-CoV Urbani (Rabbit serum looped peptides)” value is recorded as 0.4. Further, in assay [3], the “Binding of antibody 03-018 to linear peptides of the N protein of SARS-CoV Urbani” value was determined as 0.1 and the “Binding of antibody 03-018 to looped/cyclic peptides of the N protein of SARS-CoV Urbani” value was 0.2.
With RTATKQYNVTQAFGR, in assay [1], the “Binding of Control Serum Blood-Bank to Looped peptides” value is recorded as 0.8, the “Binding of Control serum Blood-bank to linear peptides” value is recorded as 0.9, the “Binding of Control serum LUMC to linear peptides” value is listed as 0.8 and the “Binding of Control serum LUMC to looped peptides” value turned out to be 0.9. The “Recognition of the peptide” value in assay [2] was “recognized”. Moreover, in assay [3], the “Binding of antibody 03-018 to linear peptides of the N protein of SARS-CoV Urbani” value is reported as 0.1 and the “Binding of antibody 03-018 to looped/cyclic peptides of the N protein of SARS-CoV Urbani” value is recorded as 0.2.
Take TLPKGFYAEGSRGGS: in assay [1], the “Binding of Control Serum Blood-Bank to Looped peptides” value is 0.5, the “Binding of Control serum Blood-bank to linear peptides” value was 0.7, the “Binding of Control serum LUMC to linear peptides” value is 1.2 and the “Binding of Control serum LUMC to looped peptides” value was found to be 0.5. In assay [2], the “Binding … (Rabbit serum linear peptides)” value came to 0.5 and the “Binding of a rabbit serum to looped/cyclic peptides of protein N of SARS-CoV Urbani (Rabbit serum looped peptides)” value worked out at 0.3. In assay [3], the “Binding of antibody 03-018 to linear peptides of the N protein of SARS-CoV Urbani” value worked out at 0.1 and the “Binding of antibody 03-018 to looped/cyclic peptides of the N protein of SARS-CoV Urbani” value is listed as 0.2.
Regarding VLQLPQGTTLPKGFY, in assay [1], the “Binding of Control Serum Blood-Bank to Looped peptides” value is 0.7, the “Binding of Control serum Blood-bank to linear peptides” value turned out to be 0.7, the “Binding of Control serum LUMC to linear peptides” value turned out to be 0.6 and the “Binding of Control serum LUMC to looped peptides” value is given as 0.8. In assay [2], the “Binding … (Rabbit serum linear peptides)” value worked out at 0.2 and the “Binding of a rabbit serum to looped/cyclic peptides of protein N of SARS-CoV Urbani (Rabbit serum looped peptides)” value was 0.4. For the same sequence, in assay [3], the “Binding of antibody 03-018 to linear peptides of the N protein of SARS-CoV Urbani” value turned out to be 0.1 and the “Binding of antibody 03-018 to looped/cyclic peptides of the N protein of SARS-CoV Urbani” value came to 0.3.
